In US20080063628A1, “METHODS TO PROMOTE CELL DIFFERENTIATION” (priority 2006, published 2008):

Tested on: amniotic fluid-derived cell line
Assay: Two high dose trichostatin A treatments (first 48 h), gene expression by RT-PCR (Example 9);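 for Gata-1 RT-PCR detection cycle: lower cycle number means higher gene expression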;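 for HNF-3 beta RT-PCR detection cycle: lower cycle number means higher gene expression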
Type: cell-based, human
Settings: for Gata1 gene expression / HNF-3 beta gene expression / Insulin gene expression / Pdx-1 gene expression / sox17 gene expression: 1.25 μM 0-48 h + 96-120 h
Protocol: Several cell lines obtained from different amniotic fluid specimens (see Example 14) and pancreas donors (see Example 13) were tested with similar results. Two lines at similar passage number but derived from different amniotic fluid specimens are shown in Table VIII-A and Table VIII-B for this example. One of these cell lines was also used in examples 2 and 4 above. In addition, this example also contains comparison data in Table VIII-C and Table VIII-D for a single pancreatic-derived stromal line grown to early and late passage number.
Amniotic fluid derived cells or pancreatic-derived stromal cells were seeded into 24-well tissue culture plates at a density of 5000/cm^2 and cultured in AMNIOMAX (Invitrogen) or DMEM with 10% FBS respectively under standard cell culture conditions until confluent. After reaching confluence, amniotic fluid derived cells were treated at time 0 hours with a dose of 1.25 μM trichostatin A, and pancreatic-derived stromal cells were treated with a dose of 5.0 μM trichostatin A solubilized in DMSO and medium. At time 48 hours, cell cultures underwent a complete medium change to remove all traces of trichostatin A. At time 96 hours, cell cultures were re-fed with fresh medium and received a second dose of trichostatin A at the same concentration as used previously. At time 120 hours, cell cultures again underwent a complete medium change and were cultured for an additional 24 hours or […] total incubation time. Samples were taken for RT-PCR at the times indicated in Table IX-A to D. RNA samples were obtained daily from the start of the experiment. Culture medium was removed, and cells were washed with PBS then collected in RLT with β-mercaptoethanol (Qiagen). RNA was purified using the RNeasy Mini Kit (Qiagen) and RNA quantity and quality was determined using a spectrophotometer. cDNA was made using the iScript cDNA synthesis kit (BioRad). Human pancreas cDNA was included as a control. Results were normalized against GAPDH expression levels.
[…] Samples of 20 ng cDNA was used in each Real-Time PCR reaction. RT-PCR was performed on the Applied Biosystems 7500, according to the methods described in Example 15. The data were analyzed using the accompanying software.
Real-time PCR amplifcation and quantitative analysis. Unless otherwise stated, all reagents were purchased from Applied Biosystems. Real-time PCR reactions were performed using the ABI PRISM™ 7500 Sequence Detection System. TAQMAN™ FAST UNIVERSAL PCR MASTER MIX™ (ABI, CA) was used with 20 ng of reverse transcribed RNA in a total reaction volume of 20 μl. Each cDNA sample was run in duplicate to allow correction of pipetting errors. Primers and FAM-labeled TAQMAN™ probes were used at concentrations of 200 nM. The level of expression for each target gene was normalized using the pre-developed Applied Biosystem's human glyceraldehyde-3-phosphate dehydrogenase (GAPDH) endogenous control kit. Primers and probes were designed using either ABI PRISM PRIMER EXPRESS™ software or a pre-developed ABI gene analysis kit. For each gene, either one of the primers or the probe were designed to be exon-boundary spanning. This eliminated the possibility of the primers/probe binding to any genomic DNA present. The primer and probe sets are listed as follows: Pdx-1 (Hs00426216), Insulin (Hs00355773), glucagon (Hs00174967), and FoxA2 (HNF 3-beta) (Hs00232764). The remaining primers were designed using the PRIMERS program (ABI, CA). After an initial 95° C. incubation for 20 sec, samples were cycled 40 times in two stages: a denaturation step at 95° C. for 3 sec, followed by an annealing/extension step at 60° C. for 30 sec.
For each primer/probe set, a cycle time value was determined as the cycle number at which the fluorescence intensity of the PCR reaction reached a specific value in the middle of the exponential region of amplification. […]

[1] = 1.25 μM, following the addition

`CC(/C=C/C(=O)NO)=C\[C@@H](C)C(=O)c1ccc(N(C)C)cc1` [trichostatin A] was tested, and the Gata1 gene expression (24 hrs) was “+ (detectable between 35 and 40 cycles by RT-PCR)”, the “HNF-3 beta gene expression” value (24 hrs) was “+++ (detectable at less than 35 cycles by RT-PCR with SE less than 0.9)” and the Insulin gene expression (24 hrs) was “nd (not detectable at >40 cycles by RT-PCR)”. For the same molecule, the Pdx-1 gene expression (24 hrs) was “+++ (detectable at less than 35 cycles by RT-PCR with SE less than 0.9)”, the sox17 gene expression (24 hrs) was “+++ (detectable at less than 35 cycles by RT-PCR with SE less than 0.9)” and the Gata1 gene expression (48 hrs) was “nd (not detectable at >40 cycles by RT-PCR)”. For the same molecule, the “HNF-3 beta gene expression” value (48 hrs) was “+++ (detectable at less than 35 cycles by RT-PCR with SE less than 0.9)”, the Insulin gene expression (48 hrs) was “nd (not detectable at >40 cycles by RT-PCR)” and the Pdx-1 gene expression (48 hrs) was “+++ (detectable at less than 35 cycles by RT-PCR with SE less than 0.9)”. For the same molecule, the sox17 gene expression (48 hrs) was “+++ (detectable at less than 35 cycles by RT-PCR with SE less than 0.9)”, the Gata1 gene expression (72 hrs) was “nd (not detectable at >40 cycles by RT-PCR)” and the “HNF-3 beta gene expression” value (72 hrs) was “+ (detectable between 35 and 40 cycles by RT-PCR)”. For the same molecule, the Insulin gene expression (72 hrs) was “nd (not detectable at >40 cycles by RT-PCR)”, the Pdx-1 gene expression (72 hrs) was “nd (not detectable at >40 cycles by RT-PCR)” and the sox17 gene expression (72 hrs) was “+++ (detectable at less than 35 cycles by RT-PCR with SE less than 0.9)”. For the same molecule, the Gata1 gene expression (96 hrs) was “nd (not detectable at >40 cycles by RT-PCR)”, the “HNF-3 beta gene expression” value (96 hrs) was “nd (not detectable at >40 cycles by RT-PCR)” and the Insulin gene expression (96 hrs) was “nd (not detectable at >40 cycles by RT-PCR)”. For the same molecule, the Pdx-1 gene expression (96 hrs) was “nd (not detectable at >40 cycles by RT-PCR)”, the sox17 gene expression (96 hrs) was “+++ (detectable at less than 35 cycles by RT-PCR with SE less than 0.9)” and the Gata1 gene expression (120 hrs) was “nd (not detectable at >40 cycles by RT-PCR)”. The “HNF-3 beta gene expression” value (120 hrs) was “+ (detectable between 35 and 40 cycles by RT-PCR)”, the Insulin gene expression (120 hrs) was “nd (not detectable at >40 cycles by RT-PCR)” and the Pdx-1 gene expression (120 hrs) was “+ (detectable between 35 and 40 cycles by RT-PCR)”. The sox17 gene expression (120 hrs) was “+++ (detectable at less than 35 cycles by RT-PCR with SE less than 0.9)”, the “Pdx-1 RT-PCR detection cycle” value (1.25 μM, after the second treatment) was 37 cycles and the “Gata-1 RT-PCR detection cycle” value (1.25 μM, following first treatment) was 37 cycles. For the same molecule, the “HNF-3 beta RT-PCR detection cycle” value [1] was 31 cycles, the “Pdx-1 RT-PCR detection cycle” value [1] was 32 cycles and the “HNF-3 beta RT-PCR detection cycle” value (1.25 μM, following the second treatment) was 35 cycles.
